These results are taken from US8466162B2, “5-alkynyl-pyridines” (Boehringer Ingelheim International GmbH, priority 2011, dated 2013).

One experiment concerns the target T1, PI3Kalpha (Homo sapiens, UniProt P42336).
T1 construct: His (N); made in house; host or cells: SF9 insect cells (baculovirus co-infection)
As to the kind of experiment: Inhibition of PI3Kalpha-induced PIP-2 phosphorylation (filter-binding assay, 33P-ATP). It counts as biochemical. The conditions noted are these: PI3 Kinase alpha (p85alpha/His-p110alpha), 1 μM ATP; read-out: IC50 PI3Kα. As to the method:
Biological Methods Inhibition of PI3Kalpha-Induced PIP-2 Phosphorylation
See also J. A. Engelman, Nature Reviews Cancer, 2009, 9, 550-562; A. Carnero, Expert Opin. Investig. Drugs, 2009, 18, 1265-1277 and P. Liu et al., Nature Reviews Drug Discovery, 2009, 8, 627-64.
Method Type: Filter-Binding-Assay
Aliquoted in desired amounts and stored at −80° C. […] Assay Procedure
The substrate-containing lipid vesicles are dissolved to a concentration of 0.637 mg lipid blend/ml assay buffer (with BSA, freshly added) in 50 ml Falcon ->keep on ice, followed by ultrasonication (pulse of 15 sec followed by a pause of 10 sec, 4×). Compounds are serially diluted in assay buffer+6% DMSO and 10 μl of each dilution is added per well of a 96-well plate (compounds are tested in duplicates) and mixed with 30 μl of the lipid vesicles containing PDGFR-Peptide (0.5 μM final) and PI3K alpha (25 ng/well final). The mixture is then incubated for 20 minutes at room temperature.
Subsequently, 20 μl of assay buffer containing 3 μM cold ATP and 0.5 μCi/20 μl 33P-ATP are added. The plates are then incubated at room temperature for 120 minutes (shaking with 300 rpm).
The reaction mix is transferred onto filter plates using “filtermate harvester” from Packard: filter plates are rinsed with PBS, then the reaction mix is filtered onto the filter plate, washed 5 times with PBS and are allowed to dry for 30-60 minutes at 50° C. The plate bottom is sealed with Perkin Elmer white adhesive foil and 25 μl/well Microscint0 are added, the top is covered with transparent adhesive foil and the plate is measured with Wallac Trilux 1450 Microbeta Counter.
As positive control serve wells containing vehicle controls (1% DMSO in assay buffer), showing non-inhibited kinase activity (high values). Wells containing assay buffer instead of enzyme can serve as control for background activity (low values).
Calculate IC50 values using the Smiley program (based on GrapPad Prism)

Another experiment relates to H460 cells. Nature of the experiment: alamarBlue H460 cell assay (antiproliferative/cytotoxicity). It counts as cell-based. The note with it: NCI-H460; H460 human lung carcinoma cells. From the text:
(§1) The H460, MB453, U87, MCF7 and BT474 alamarBlue cell assays provide EC50 values indicative of the antiproliferative or cytotoxic effects of the compounds to respectively the H460 (human non small cell line cancer), MB-453 (breast cancer cell line), U87 (glioblastoma cell line), MCF7 (breast cancer cell line) and BT474 (breast cancer cell line). As known in the field, antiproliferative or cytotoxic effect against this cell lines would be expected to be indicative of activity in treating lung, breast and brain cancers. See R. Marone R et al. Biochim. Biophys. Acta. 2008 January; 1784(1):159-85. S. Yaguchi et al., J. Natl. Cancer Inst. 2006 Apr. 19; 98(8):545-56.
(§2) Method Type: Antiproliferative/Cytotoxicity
(§3) alamarBlue® is designed to provide a rapid and sensitive measure of cell proliferation and cytotoxicity in various human and animal cell lines. The assay is based on the reduction of alamarBlue in the reducing environment of living (metabolically active) cells. In the presence of added cytotoxic or antiproliferative compounds, the innate metabolic activity ceases.
(§4) AlamarBlue is soluble and stable in culture medium. Measurements are made fluorometrically by exciting at 530-560 nm and measuring emission at 590 nm. In reporting percent alamarBlue reduction by monitoring fluorescence, data are expressed as fluorescence emission intensity units as a function of time of incubation.
(§5) 3. Equipment • 96-well plates, flat bottom (Falcon, Cat. No.: 353072) • 96-well plates, U-shaped (Costar, Cat. No.: 3799) • CO2-Incubator • Microplate Reader, Spectramax Plus, Molecular Devices 4. Typical Procedure • Day 0: Seed 3000 BT-474 cells (IMDM/5% FCS, 1% NEAA, 1% Sodiumpyruvat) in 150 μl medium into a 96-well plate, flat bottom (include mediumblank). Incubate plates at 37° C. in a CO2 incubator overnight. • Day 1: Dilute compounds to a concentration 40 μM ->1:3 in medium, 10 dilution steps, in 96-well plates. • Add 50 μl per well of each dilution (total volume per well 200 μl; final conc. of cpds: 10 μM ->1:3). If required, test further dilutions. • All concentrations are tested in duplicates. • Controls: Cells w/o cpd. (+50 μl medium/DMSO). • Cells are incubated with compounds for 5-6 days. • Day 6 or 7: Add 25 μl of alamarBlue solution to each well and incubate for 8 hours at 37° C. Measure fluorescence by exciting at 530-560 nm and measuring emission at 590 nm 5. Evaluation • Subtract average value for medium blank from sample readings • Calculate EC50 using GraphPad Prism (Fifty)

The subject of another experiment is BT474 cells. Nature of the experiment: alamarBlue BT474 cell assay (antiproliferative/cytotoxicity). It counts as cell-based. The note with it: BT-474 human breast cancer cell line, 5-6 days incubation.
Excerpt: as §1, §2, §3, §4, §5

In the next experiment the test system is MCF7 cells. Nature of the experiment: alamarBlue MCF7 cell assay (antiproliferative/cytotoxicity). Format: cell-based. The conditions noted are these: MCF7 human breast cancer cell line.
Excerpt: as §1, §2, §3, §4, §5

Usually IC50 stands for the midpoint of a concentration-inhibition curve. What is called EC50 is the concentration giving half of the maximal effect. The low end stands for higher potency in that assay, the high end for lower potency in that assay.

T1 sequence (P27986 whole entry): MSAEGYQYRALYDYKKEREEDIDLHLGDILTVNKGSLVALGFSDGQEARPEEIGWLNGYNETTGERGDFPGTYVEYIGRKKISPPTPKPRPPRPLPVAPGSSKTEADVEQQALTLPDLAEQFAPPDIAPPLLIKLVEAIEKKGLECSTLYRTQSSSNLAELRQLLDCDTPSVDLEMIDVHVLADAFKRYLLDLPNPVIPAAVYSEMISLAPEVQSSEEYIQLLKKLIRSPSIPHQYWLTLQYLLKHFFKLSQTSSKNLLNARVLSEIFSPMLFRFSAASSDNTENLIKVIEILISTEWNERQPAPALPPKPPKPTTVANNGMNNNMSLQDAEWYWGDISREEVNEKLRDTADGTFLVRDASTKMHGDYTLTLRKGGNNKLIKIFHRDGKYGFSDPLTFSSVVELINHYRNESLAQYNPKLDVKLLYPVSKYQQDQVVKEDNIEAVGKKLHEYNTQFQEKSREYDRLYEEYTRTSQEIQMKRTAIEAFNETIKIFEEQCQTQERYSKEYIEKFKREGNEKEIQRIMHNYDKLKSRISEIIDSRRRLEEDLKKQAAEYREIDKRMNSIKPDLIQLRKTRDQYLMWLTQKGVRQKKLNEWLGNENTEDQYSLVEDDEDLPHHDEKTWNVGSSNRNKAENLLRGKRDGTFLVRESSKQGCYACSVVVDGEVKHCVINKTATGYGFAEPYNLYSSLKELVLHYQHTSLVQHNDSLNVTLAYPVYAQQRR
T1 sequence (P42336 whole entry): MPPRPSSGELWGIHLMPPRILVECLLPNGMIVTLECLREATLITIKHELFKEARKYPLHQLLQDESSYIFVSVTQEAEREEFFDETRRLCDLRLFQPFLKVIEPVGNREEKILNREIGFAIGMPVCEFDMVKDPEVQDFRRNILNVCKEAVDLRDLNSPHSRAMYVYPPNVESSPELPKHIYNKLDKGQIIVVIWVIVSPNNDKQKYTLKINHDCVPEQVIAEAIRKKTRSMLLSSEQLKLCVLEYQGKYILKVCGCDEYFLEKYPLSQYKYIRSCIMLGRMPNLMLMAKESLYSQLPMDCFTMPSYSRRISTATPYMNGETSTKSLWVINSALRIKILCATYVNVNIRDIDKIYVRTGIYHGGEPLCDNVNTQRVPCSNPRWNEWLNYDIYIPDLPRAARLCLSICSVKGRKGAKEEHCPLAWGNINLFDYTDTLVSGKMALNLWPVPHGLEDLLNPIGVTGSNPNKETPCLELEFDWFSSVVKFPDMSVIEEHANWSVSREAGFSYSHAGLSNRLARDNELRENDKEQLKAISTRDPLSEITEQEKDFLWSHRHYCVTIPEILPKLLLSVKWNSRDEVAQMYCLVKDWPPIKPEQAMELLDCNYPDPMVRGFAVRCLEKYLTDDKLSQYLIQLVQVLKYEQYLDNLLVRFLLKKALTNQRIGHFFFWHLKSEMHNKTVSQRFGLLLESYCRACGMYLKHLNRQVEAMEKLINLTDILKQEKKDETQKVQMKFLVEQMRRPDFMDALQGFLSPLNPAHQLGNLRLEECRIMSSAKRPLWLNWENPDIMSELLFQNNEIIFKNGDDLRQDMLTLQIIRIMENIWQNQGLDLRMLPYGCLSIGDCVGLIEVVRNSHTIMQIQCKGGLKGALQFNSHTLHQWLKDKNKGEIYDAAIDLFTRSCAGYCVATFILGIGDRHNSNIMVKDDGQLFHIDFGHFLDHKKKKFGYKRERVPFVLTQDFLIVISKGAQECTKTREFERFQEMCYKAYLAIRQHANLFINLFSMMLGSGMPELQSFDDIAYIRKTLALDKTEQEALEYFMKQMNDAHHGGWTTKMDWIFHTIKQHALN

On to `CCc1nc(N)nc(-c2cccnc2)c1C#Cc1cnc(C)c(NS(C)(=O)=O)c1` [Example 12, N-[5-(2-Amino-4-ethyl-6-pyridin-3-yl-pyrimidin-5-ylethynyl)-2-methyl-pyridin-3-yl]-methanesulfonamide], for which the IC50 on PI3Kalpha was 2 nM. Also, a half-maximal response with H460 cells (EC50) required 1240 nM. With `CCc1nc(N)nc(-c2ccc(C3CC3)nc2)c1C#Cc1cnc(C)c(NS(C)(=O)=O)c1` [Example 13, N-{5-[2-Amino-4-(6-cyclopropyl-pyridin-3-yl)-6-ethyl-pyrimidin-5-ylethynyl]-2-methyl-pyridin-3-yl}-methanesulfonamide], the results for the EC50 with BT474 cells, in the experiment on H460 cells and in the experiment with MCF7 cells were 132 nM, 141 nM and 24 nM, respectively. For the same compound, the IC50 on PI3Kalpha was 0.74 nM.

With `CCc1nc(N)nc(-c2cccc(F)c2)c1C#Cc1cnc(C)c(NS(C)(=O)=O)c1` [Example 16, N-{5-[2-Amino-4-ethyl-6-(3-fluoro-phenyl)-pyrimidin-5-ylethynyl]-2-methyl-pyridin-3-yl}-methanesulfonamide], the IC50 on PI3Kalpha is 2 nM. Further, the concentration giving a half-maximal response (EC50) in the experiment with H460 cells came out at 337 nM. The corresponding values for `CCc1nc(N)nc(-c2ccccc2)c1C#Cc1cnc(C)c(NS(C)(=O)=O)c1` [Example 17, N-[5-(2-Amino-4-ethyl-6-phenyl-pyrimidin-5-ylethynyl)-2-methyl-pyridin-3-yl]-methanesulfonamide] are 2 nM and 172 nM.

For the compound `CCc1nc(N)nc(-c2ccc(CN3CCOCC3)cc2)c1C#Cc1cnc(C)c(NS(C)(=O)=O)c1` [Example 18, N-{5-[2-Amino-4-ethyl-6-(4-morpholin-4-ylmethyl-phenyl)-pyrimidin-5-ylethynyl]-2-methyl-pyridin-3-yl}-methanesulfonamide], the EC50 in the experiment with BT474 cells came out at 260 nM; in the experiment with MCF7 cells it was 118 nM. For the same compound, on PI3Kalpha, the IC50 was found to be 2 nM. The corresponding values for `CCc1nc(N)nc(-c2cccc(CN(C)C)c2)c1C#Cc1cnc(C)c(NS(C)(=O)=O)c1` [Example 19, N-{5-[2-Amino-4-(3-dimethylaminomethyl-phenyl)-6-ethyl-pyrimidin-5-ylethynyl]-2-methyl-pyridin-3-yl}-methanesulfonamide] are 806 nM, 313 nM and 6 nM. As to `CCS(=O)(=O)Nc1cc(C#Cc2c(C)nc(N)nc2-c2ccnc(C)c2)cnc1C` [Example 20, Ethanesulfonic acid {5-[2-amino-4-methyl-6-(2-methyl-pyridin-4-yl)-pyrimidin-5-ylethynyl]-2-methyl-pyridin-3-yl}-amide], on PI3Kalpha, the IC50 is 14 nM. Further, the EC50 in the experiment on H460 cells is 1820 nM. For `CCc1ncnc(-c2ccc(OC)c(OC)c2C)c1C#Cc1cnc(C)c(NS(C)(=O)=O)c1` [Example 24, N-{5-[4-(3,4-Dimethoxy-2-methyl-phenyl)-6-ethyl-pyrimidin-5-ylethynyl]-2-methyl-pyridin-3-yl}-methanesulfonamide], at PI3Kalpha, the half-maximal inhibitory concentration (IC50) turned out to be 28 nM. Regarding `CCc1nc(N)nc(-c2cccc(CN(C)C)c2)c1C#Cc1cnc(C)c(NS(=O)(=O)c2ccc(F)cc2F)c1` [Example 35, N-{5-[2-Amino-4-(3-dimethylaminomethyl-phenyl)-6-ethyl-pyrimidin-5-ylethynyl]-2-methyl-pyridin-3-yl}-2,4-difluoro-benzenesulfonamide], the IC50 at PI3Kalpha was 2 nM. The same measure, in the same setting: the value for `CCc1ncnc(-c2c(C)cccc2C)c1C#Cc1cnc(C)c(NS(C)(=O)=O)c1` [Example 58, N-{5-[4-(2,6-Dimethyl-phenyl)-6-ethyl-pyrimidin-5-ylethynyl]-2-methyl-pyridin-3-yl}-methanesulfonamide] was 380 nM; that for `CCc1ncnc(-c2ccccc2C)c1C#Cc1cnc(C)c(NS(C)(=O)=O)c1` [Example 60, N-[5-(4-Ethyl-6-o-tolyl-pyrimidin-5-ylethynyl)-2-methyl-pyridin-3-yl}-methanesulfonamide] was 37 nM; that for `CCc1ncnc(-c2cc(C#N)ccc2F)c1C#Cc1cnc(C)c(NS(C)(=O)=O)c1` [Example 66, N-{5-[4-(5-Cyano-2-fluoro-phenyl)-6-ethyl-pyrimidin-5-ylethynyl]-2-methyl-pyridin-3-yl}-methanesulfonamide] was 34 nM. Turning to `CCc1ncnc(-c2cc(C(F)(F)F)ccc2F)c1C#Cc1cnc(C)c(NS(C)(=O)=O)c1` [Example 67, N-{5-[4-Ethyl-6-(2-fluoro-5-trifluoromethyl-phenyl)-pyrimidin-5-ylethynyl]-2-methyl-pyridin-3-yl}-methanesulfonamide], the IC50 on PI3Kalpha is 46 nM. Same read-out and setting: the value for `CCc1ncnc(-c2cc(C(F)(F)F)ccc2OC)c1C#Cc1cnc(C)c(NS(C)(=O)=O)c1` [Example 68, N-{5-[4-Ethyl-6-(2-methoxy-5-trifluoromethyl-phenyl)-pyrimidin-5-ylethynyl]-2-methyl-pyridin-3-yl}-methanesulfonamide] was 136 nM; that for `CCc1ncnc(-c2cc(CN)ccc2F)c1C#Cc1cnc(C)c(NS(C)(=O)=O)c1` [Example 77, N-{5-[4-(5-Aminomethyl-2-fluoro-phenyl)-6-ethyl-pyrimidin-5-ylethynyl]-2-methyl-pyridin-3-yl}-methanesulfonamide] was 150 nM; that for `CCc1ncnc(-c2cccc(CN)c2F)c1C#Cc1cnc(C)c(NS(C)(=O)=O)c1` [Example 79, N-{5-[4-(3-Aminomethyl-2-fluoro-phenyl)-6-ethyl-pyrimidin-5-ylethynyl]-2-methyl-pyridin-3-yl}-methanesulfonamide] was 44 nM. Turning to `CCc1ncnc(-c2ccc(OC)c(OC)c2OC)c1C#Cc1cnc(C)c(NS(C)(=O)=O)c1` [Example 80, N-{5-[4-Ethyl-6-(2,3,4-trimethoxy-phenyl)-pyrimidin-5-ylethynyl]-2-methyl-pyridin-3-yl}-methanesulfonamide], on PI3Kalpha, the IC50 came to 43 nM.

As to `CCc1ncnc(-c2ccnc(C)c2)c1C#Cc1cnc(C)c(NS(=O)(=O)c2ccc(F)cc2Cl)c1` [Example 90, 2-Chloro-N-{5-[4-ethyl-6-(2-methyl-pyridin-4-yl)-pyrimidin-5-ylethynyl]-2-methyl-pyridin-3-yl}-4-fluoro-benzenesulfonamide], the IC50 at PI3Kalpha was determined as 2 nM. Consider `CCc1ncnc(-c2ccnc(C)c2)c1C#Cc1cnc(C)c(NS(=O)(=O)c2ccc(Br)cc2C)c1` [Example 97, 4-Bromo-N-{5-[4-ethyl-6-(2-methyl-pyridin-4-yl)-pyrimidin-5-ylethynyl]-2-methyl-pyridin-3-yl}-2-methyl-benzenesulfonamide], for which it took 1530 nM to reach a half-maximal effect in the experiment with BT474 cells (EC50). Besides, the IC50 at PI3Kalpha turned out to be 12 nM.
